Source: BigSolDB 2.1

**Q.** With `NC(=O)c1ccccc1` as the compound, how does the solubility (mole fraction) (in ethanol, 283.15 K) read?
**A.** 0.041

**Q.** And the solubility (mole fraction) (in ethanol, 288.15 K)?
**A.** 0.0478

**Q.** What about the solubility (mole fraction) (in ethanol, 293.15 K) of the same compound?
**A.** 0.0567

**Q.** And the solubility (mole fraction) (in ethanol, 298.15 K)?
**A.** 0.0652

**Q.** And the solubility (mole fraction) (in ethanol, 303.15 K)?
**A.** 0.0761

**Q.** And the solubility (mole fraction) (in ethanol, 308.15 K)?
**A.** 0.0859

**Q.** And the solubility (mole fraction) (in ethanol, 313.15 K)?
**A.** 0.102

**Q.** What about the solubility (mole fraction) (in ethanol, 318.15 K) of the same compound?
**A.** 0.122

**Q.** What about the solubility (mole fraction) (in ethanol, 323.15 K) of the same compound?
**A.** 0.142

**Q.** And the solubility (mole fraction) (in ethyl acetate, 283.15 K)?
**A.** 0.0217

**Q.** And the solubility (mole fraction) (in ethyl acetate, 288.15 K)?
**A.** 0.024

**Q.** And the solubility (mole fraction) (in ethyl acetate, 293.15 K)?
**A.** 0.0281

**Q.** What about the solubility (mole fraction) (in ethyl acetate, 298.15 K) of the same compound?
**A.** 0.0325

**Q.** And the solubility (mole fraction) (in ethyl acetate, 303.15 K)?
**A.** 0.0381

**Q.** What about the solubility (mole fraction) (in ethyl acetate, 308.15 K) of the same compound?
**A.** 0.0453

**Q.** And the solubility (mole fraction) (in ethyl acetate, 313.15 K)?
**A.** 0.0527

**Q.** What about the solubility (mole fraction) (in ethyl acetate, 318.15 K) of the same compound?
**A.** 0.0618

**Q.** And the solubility (mole fraction) (in ethyl acetate, 323.15 K)?
**A.** 0.0717

**Q.** What about the solubility (mole fraction) (in methanol, 283.15 K) of the same compound?
**A.** 0.061

**Q.** And the solubility (mole fraction) (in methanol, 288.15 K)?
**A.** 0.0692

**Q.** And the solubility (mole fraction) (in methanol, 293.15 K)?
**A.** 0.08

**Q.** What about the solubility (mole fraction) (in methanol, 298.15 K) of the same compound?
**A.** 0.088

**Q.** What about the solubility (mole fraction) (in methanol, 303.15 K) of the same compound?
**A.** 0.104

**Q.** And the solubility (mole fraction) (in methanol, 308.15 K)?
**A.** 0.123

**Q.** And the solubility (mole fraction) (in methanol, 313.15 K)?
**A.** 0.138

**Q.** What about the solubility (mole fraction) (in methanol, 318.15 K) of the same compound?
**A.** 0.162

**Q.** What about the solubility (mole fraction) (in methanol, 323.15 K) of the same compound?
**A.** 0.186

**Q.** And the solubility (mole fraction) (in n-propanol, 283.15 K)?
**A.** 0.0329

**Q.** And the solubility (mole fraction) (in n-propanol, 288.15 K)?
**A.** 0.0399

**Q.** And the solubility (mole fraction) (in n-propanol, 293.15 K)?
**A.** 0.0471

**Q.** What about the solubility (mole fraction) (in n-propanol, 298.15 K) of the same compound?
**A.** 0.0552

**Q.** And the solubility (mole fraction) (in n-propanol, 303.15 K)?
**A.** 0.0653

**Q.** What about the solubility (mole fraction) (in n-propanol, 308.15 K) of the same compound?
**A.** 0.0754

**Q.** What about the solubility (mole fraction) (in n-propanol, 313.15 K) of the same compound?
**A.** 0.0892

**Q.** And the solubility (mole fraction) (in n-propanol, 318.15 K)?
**A.** 0.105

**Q.** What about the solubility (mole fraction) (in n-propanol, 323.15 K) of the same compound?
**A.** 0.126
